Data published in patent publication US20110039762A1, “TARGETED ANTIMICROBIAL MOIETIES” (C3 JIAN, INC., priority 2009, published 2011).
Entries after “also recorded” stand apart in the source; their conditions may differ.

Columns and labels:
S. pneumoniae = assay: Kill or inhibit growth/proliferation; morphology, biofilm and growth disruption (Tables 5, 6); format: cell-based, Streptococcus pneumoniae; set-up: key: A: Peptide aggregates; B: Less hyphal formation; Clumps; Diffuse clumps and small polyps; F: Diffuse growth; H: Thin; I: Growth inhibition; Microcolony formation; Rippled; Small polyps; Thick; W: Halo formation on top, microlonies on bottom; note: test concentration or dose not given here
[1] = test system: microorganisms (e.g., bacteria, yeasts, fungi); assay: Targeting peptide binding to target microorganisms (Table 3); details: preferably 1x PBS; for Target(s) (microorganisms bound by the targeting peptide): peptide binding in aqueous buffers varied by peptide solubility
microorganisms = assay: Peptides having multiple activities (targeting/binding, antimicrobial, growth or phenotype altering)
From the text: In certain embodiments, peptides described herein can have multiple activities. Thus for example, a peptide can have both binding/targeting activity and antimicrobial activity. Such peptides can be used, e.g., in a chimeric construct, for any or all of these properties. Thus, for example, a peptide designated “B” in Table 8 can be used as a targeting peptide. If it is also designated G or M it can also be used for antimicrobial activity.

B. subtilis = assay: Kill or inhibit growth/proliferation; morphology, biofilm and growth disruption (Tables 5, 6); format: cell-based, Bacillus subtilis; set-up: key: A: Peptide aggregates; B: Less hyphal formation; Clumps; Diffuse clumps and small polyps; F: Diffuse growth; H: Thin; I: Growth inhibition; Microcolony formation; Rippled; Small polyps; Thick; W: Halo formation on top, microlonies on bottom; note: test concentration or dose not given here
C. jejuni = assay: as above; format: cell-based, Campylobacter jejuni; set-up: key: A: Peptide aggregates; B: Less hyphal formation; Clumps; Diffuse clumps and small polyps; F: Diffuse growth; H: Thin; I: Growth inhibition; Microcolony formation; Rippled; Small polyps; Thick; W: Halo formation on top, microlonies on bottom
S. epidermidis = assay: as above; format: cell-based, Staphylococcus epidermidis; set-up: key: A: Peptide aggregates; B: Less hyphal formation; Clumps; Diffuse clumps and small polyps; F: Diffuse growth; H: Thin; I: Growth inhibition; Microcolony formation; Rippled; Small polyps; Thick; W: Halo formation on top, microlonies on bottom
MRSA = assay: as above; format: cell-based, Methicillin-resistant Staphylococcus aureus; set-up: key: A: Peptide aggregates; B: Less hyphal formation; Clumps; Diffuse clumps and small polyps; F: Diffuse growth; H: Thin; I: Growth inhibition; Microcolony formation; Rippled; Small polyps; Thick; W: Halo formation on top, microlonies on bottom
[2] = microorganism the targeting peptide binds, binding in aqueous buffers varied by peptide solubility
[3] = microorganism(s) the targeting peptide binds, binding in aqueous buffers depending on peptide solubility
[4] = microorganism(s) the targeting peptide binds, peptide binding conducted in aqueous buffers varied by peptide solubility
Throughout, for Organism, effect (morphology, biofilm and growth disruption): test concentration or dose not given here.
Throughout, for Organism, effect: test concentration or dose not given here.

Row | Substance | Activities (microorganisms) | Organism, effect (B. subtilis) | Organism, effect (S. epidermidis) | further results
1 | PF-002: peptide having multiple activities (chain 1 NDDAQ; chain 2 NDDAQ; Peptide with targeting and/or antimicrobial activity) | G B | B. subtilis (R) |  | Organism, effect (S. pneumoniae): S. pneumoniae (H); Target(s) [1, 2]: S. epidermidis; also recorded: P. mirabilis; also recorded: C. albicans; also recorded: C. jeikeium; also recorded: C. jejuni
2 | PF-008: peptide having multiple activities (chain 1 MIEIGSIAYLNGGSKKYNHILNQENR; chain 2 MIEIGSIAYLNGGSKKYNHILNQENR; Peptide with targeting and/or antimicrobial activity) | G B | B. subtilis (D) |  | Target(s) [1, 2]: S. epidermidis and M. luteus and MRSA and C. jejuni; Organism, effect (C. jejuni): C. jejuni (R)
3 | PF-069: peptide having multiple activities (FDPVPLKKDKSASKHSHKHNH; Peptide with targeting and/or antimicrobial activity) | G B | B. subtilis (D) |  | Target(s) [1, 2]: E. faecalis; also recorded: C. jejuni; Organism, effect (C. jejuni): C. jejuni (R)
4 | PF-292: peptide having multiple activities (SFVSTTVRLIFEESKRYKF; Peptide with targeting and/or antimicrobial activity) | G B | B. subtilis (C) | S. epidermidis (C) | Target(s) [1, 3]: S. epidermidis; also recorded: B. subtilis; also recorded: B. fragilis
5 | PF-296 (GAFGMPSIKTNTICGEKGKFISACDAWLSNLK; Peptide with targeting and/or antimicrobial activity) |  | B. subtilis (C) | S. epidermidis (C) | 
6 | PF-297: peptide having multiple activities (ISKGIDDIVYVINKILSIGNIFKIIKRK; Peptide with targeting and/or antimicrobial activity) | G B | B. subtilis (C) | S. epidermidis (C) | Target(s) [1, 3]: S. epidermidis; also recorded: B. subtilis; also recorded: B. fragilis
7 | PF-301: peptide having multiple activities (GIVLIGLKLIPLLANVLN; Peptide with targeting and/or antimicrobial activity) | G B | B. subtilis (C) | S. epidermidis (C) | Target(s) [1, 3]: C. difficile
8 | PF-318 (MGRHLWNPSYFVATVSENTEEQIRKYINNQKKQVK; Peptide with targeting and/or antimicrobial activity) |  | B. subtilis (C) | S. epidermidis (C) | 
9 | PF-335 (AAYPIEDWSDWYEDFFIMLSNI; Peptide with targeting and/or antimicrobial activity) |  | B. subtilis (C) | S. epidermidis (C) | 
10 | PF-339 (KKIDILINKYMYLSK; Peptide with targeting and/or antimicrobial activity) |  | B. subtilis (C) | S. epidermidis (C) | 
11 | PF-342 (AFSGVYKTLIVYTRRK; Peptide with targeting and/or antimicrobial activity) |  | B. subtilis (C) | S. epidermidis (C) | 
12 | PF-549: peptide having multiple activities (chain 1 TGIGPIARPIEHGLDS; chain 2 TGIGPIARPIEHGLDS; Peptide with targeting and/or antimicrobial activity) | G B | B. subtilis (D) |  | Target(s) [1, 4]: E. coli; also recorded: C. albicans; also recorded: S. pneumoniae; also recorded: C. jeikeium; Organism, effect (MRSA): MRSA (C)
13 | PF-557: peptide having multiple activities (chain 1 AANKAREQAAAEAKRKAEEQAR; chain 2 AANKAREQAAAEAKRKAEEQAR; Peptide with targeting and/or antimicrobial activity) | G B | B. subtilis (D) |  | Target(s) [1, 4]: S. pneumoniae
14 | PF-559: peptide having multiple activities (chain 1 SRPGKPGGVSIDVSRDRQDILSNYP; chain 2 SRPGKPGGVSIDVSRDRQDILSNYP; Peptide with targeting and/or antimicrobial activity) | G B | B. subtilis (C) |  | Target(s) [1, 4]: S. epidermidis; also recorded: M. luteus; also recorded: C. albicans; also recorded: C. jeikeium; also recorded: C. jejuni; Organism, effect (C. jejuni): C. jejuni (A)
15 | PF-561 (ESLEADVQAELDTEAAKYPALPASF; Peptide with targeting and/or antimicrobial activity) |  | B. subtilis (D) |  | Organism, effect (MRSA): MRSA (M)
16 | PF-563: peptide having multiple activities (chain 1 RPELDNELDVVQNSASLDKLQASYN; chain 2 RPELDNELDVVQNSASLDKLQASYN; Peptide with targeting and/or antimicrobial activity) | G B | B. subtilis (D) |  | Organism, effect (S. pneumoniae): S. pneumoniae (H); Target(s) [1, 4]: S. epidermidis; also recorded: M. luteus; also recorded: C. jeikeium; Organism, effect (C. jejuni): C. jejuni (H)
17 | PF-565 (RAEAEAQRQAEADAKRKAEEAARL; Peptide with targeting and/or antimicrobial activity) |  | B. subtilis (D) |  | Organism, effect (MRSA): MRSA (C)
18 | PF-569: peptide having multiple activities (chain 1 KSKISEYTEKEFLEFVEDIYTNNK; chain 2 KSKISEYTEKEFLEFVEDIYTNNK; Peptide with targeting and/or antimicrobial activity) | G B | B. subtilis (D) |  | Target(s) [1, 4]: M. luteus; also recorded: P. mirabilis; also recorded: S. pneumoniae; also recorded: E. faecalis; also recorded: C. jeikeium
19 | PF-572: peptide having multiple activities (chain 1 WRASKGLPGFKAG; chain 2 WRASKGLPGFKAG; Peptide with targeting and/or antimicrobial activity) | G B | B. subtilis (D) |  | Organism, effect (S. pneumoniae): S. pneumoniae (R); Target(s) [1, 4]: S. epidermidis; also recorded: M. luteus; also recorded: E. coli; also recorded: S. pneumoniae; also recorded: C. jeikeium
20 | PF-655: peptide having multiple activities (chain 1 DAPCFDDQFGDLKCQMC; chain 2 DAPCFDDQFGDLKCQMC; Peptide with targeting and/or antimicrobial activity) | G B |  |  | Organism, effect (morphology, biofilm and growth disruption) (S. pneumoniae): S. pneumoniae (H); Target(s) (microorganisms bound by the targeting peptide) [1]: M. smegmatis; Organism, effect (morphology, biofilm and growth disruption) (S. epidermidis): S. epidermidis (R); Organism, effect (morphology, biofilm and growth disruption) (MRSA): MRSA (M); Organism, effect (morphology, biofilm and growth disruption) (B. subtilis): B. subtilis (H)
21 | PF-659 (chain 1 TVIST; chain 2 TVIST; Peptide with targeting and/or antimicrobial activity) |  |  |  | Organism, effect (morphology, biofilm and growth disruption) (S. pneumoniae): S. pneumoniae (C); Target(s) (microorganisms bound by the targeting peptide) [1]: Mycobacteria spp; Organism, effect (morphology, biofilm and growth disruption) (S. epidermidis): S. epidermidis (M); Organism, effect (morphology, biofilm and growth disruption) (MRSA): MRSA (R); Organism, effect (morphology, biofilm and growth disruption) (B. subtilis): B. subtilis (H)
22 | PF-670 (chain 1 TVIVAPMHSGV; chain 2 TVIVAPMHSGV; Peptide with targeting and/or antimicrobial activity) |  |  |  | Organism, effect (morphology, biofilm and growth disruption) (S. pneumoniae): S. pneumoniae (H); Organism, effect (morphology, biofilm and growth disruption) (B. subtilis): B. subtilis (H)
23 | SIGSMIGMYSFRHKTKHIKFTFGIPFILFLQFLLVYFYILK [PF-319] | G B | B. subtilis (C) | S. epidermidis (C) | Target(s) [1, 3]: S. epidermidis; also recorded: B. subtilis; also recorded: C. difficile
